For assay [1] the following is noted: Wall et al., J. Nat. Prod. 1989; cited from earlier work.
Assay [2] deals with progesterone receptor (T47D cells). Kind of assay: Antagonist assay in T47D (human breast cancer) cells (Tables 1 and 2). Type of assay: cell-based.
In assay [3] the target is T1, human progesterone receptor (Homo sapiens, UniProt P06401).
T1 sequence (P06401 1-933): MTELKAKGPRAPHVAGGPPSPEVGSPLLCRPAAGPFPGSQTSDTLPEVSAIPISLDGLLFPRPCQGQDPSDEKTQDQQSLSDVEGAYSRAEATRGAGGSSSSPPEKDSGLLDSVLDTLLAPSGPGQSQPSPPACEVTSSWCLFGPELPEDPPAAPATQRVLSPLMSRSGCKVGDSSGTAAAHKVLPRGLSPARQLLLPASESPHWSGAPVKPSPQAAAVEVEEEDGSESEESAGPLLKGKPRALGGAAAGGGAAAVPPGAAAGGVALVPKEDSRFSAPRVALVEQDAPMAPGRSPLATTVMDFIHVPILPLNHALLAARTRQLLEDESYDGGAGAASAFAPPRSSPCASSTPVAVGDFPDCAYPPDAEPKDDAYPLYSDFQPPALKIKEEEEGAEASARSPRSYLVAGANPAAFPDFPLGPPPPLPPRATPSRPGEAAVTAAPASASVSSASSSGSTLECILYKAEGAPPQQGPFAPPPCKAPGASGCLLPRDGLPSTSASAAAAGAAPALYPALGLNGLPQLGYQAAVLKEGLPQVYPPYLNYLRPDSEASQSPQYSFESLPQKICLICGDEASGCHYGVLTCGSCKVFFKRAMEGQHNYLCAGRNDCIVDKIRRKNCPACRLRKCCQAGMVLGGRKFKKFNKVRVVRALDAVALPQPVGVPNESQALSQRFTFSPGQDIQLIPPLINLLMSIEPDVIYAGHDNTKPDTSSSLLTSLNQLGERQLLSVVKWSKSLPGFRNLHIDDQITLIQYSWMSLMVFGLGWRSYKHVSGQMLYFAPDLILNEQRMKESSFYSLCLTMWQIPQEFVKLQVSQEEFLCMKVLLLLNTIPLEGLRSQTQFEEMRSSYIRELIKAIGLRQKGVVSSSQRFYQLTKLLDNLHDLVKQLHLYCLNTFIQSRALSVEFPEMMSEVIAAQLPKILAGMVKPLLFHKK
Put plainly: Progesterone receptor binding (displacement of 3H-progesterone, whole cell extract of transfected CV-1 cells). Details: expressed in transfected cells; host or cells: CV-1 cells (calcium phosphate transfection), whole cell extract.

The subject of assay [4] is endometrium of the uterus. Put plainly: Decidualization assay in pseudopregnant mice, oil-induced uterine weight gain. Type of assay: in vivo. Particulars: 5 mg. The protocol: A successful pregnancy requires not only the effective collision and fusion of egg and spermatozoon, but also the provision of a receptive and supportive uterus. The preparation of the endometrium of the uterus for implantation (i.e. decidualization) starts well before the blastocyst arrives in the uterus.
Psuedopregnant mice (i.e. mated with vasectomized males) were used to establish the assay system. […] At 16 hours of Day 4, a small volume of sesame oil (10 μl) was introduced to the lumen of the right uterine horn to serve as a decidual stimulus. The left horn was left undisturbed to serve as an internal control. Autopsies were performed on Day 7 to assess uterine wet weight gains in the stimulated versus non-stimulated uterine horns.
Each of these compounds was intraluminally administered in an appropriate dosage on Day 4 along with the sesame oil administration.

The test system of assay [5] is human progesterone receptor altered at the Tau-1 location. Put plainly: Co-transfection assay in CV-1 cells, progesterone receptor altered at Tau-1, antagonist activity. The assay is classed as cell-based. To be noted: for Efficacy (% maximal response relative to RU-486), CV-1 cells: antagonist activity; for pIC50: concentration required to reduce the maximal response by 50%, read-out: Potency (IC50), CV-1 cells. Summed up:
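CV-1 cells co-transfected with RSV-LTR-driven human PR (altered at Tau-1) and a hormone-responsive luciferase reporter; antagonism measured against a fixed agonist concentration. Luciferase in cell extracts read, triplicate points, potency from concentration-response; […].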

Assay [6] has as its target T1, human progesterone receptor. Put plainly: Co-transfection (cis-trans) assay in CV-1 cells, agonist and antagonist mode. Type of assay: cell-based. Details: expressed in transfected cells; host or cells: CV-1 cells (calcium phosphate transfection), whole cell extract. Particulars: antagonist mode with 10^-8 M progesterone. The source says: This assay is described in further detail in U.S. Pat. Nos. 4,981,784 and 5,071,773, which are incorporated herein by reference. The co-transfection assay provides a method for identifying functional ligands (either agonists which mimic, or antagonists which inhibit, the effect of hormones) for ligand-responsive receptor proteins.
The co-transfection assay provides a mechanism to evaluate ability of a compound to function as an agonist or antagonist of the activity modulated by an intracellular receptor. The co-transfection assay mimics an in vivo system in the laboratory. In the co-transfection assay, a cloned gene for an intracellular receptor is introduced by transfection (a procedure to induce cells to take up foreign genes) into a background cell substantially devoid of endogenous intracellular receptors. This introduced gene directs the recipient cells to make the intracellular receptor protein. A second gene is also introduced (co-transfected) into the same cells in conjunction with the intracellular receptor gene. This second gene functions as a reporter for the transcription-modulating activity of the target intracellular receptor. The reporter acts as a surrogate for the products normally expressed by a gene under control of the target receptor and its natural hormone.
A preferred reporter gene is one which expresses the firefly enzyme luciferase. The co-transfection assay can detect small molecule agonists or antagonists of target intracellular receptors. Exposing the cells to an agonist ligand increases reporter activity in the transfected cells that can be conveniently measured, reflecting ligand-dependent, intracellular receptor-mediated increases in reporter transcription. To detect antagonists, the co-transfection assay is carried out in the presence of a constant concentration of an agonist known to induce a defined reporter signal. Increasing concentrations of a test antagonist will decrease the reporter signal. The co-transfection assay is therefore useful to detect both agonists and antagonists of specific intracellular receptors. It determines not only whether a compound interacts with a particular intracellular receptor, but also whether this interaction mimics (agonizes) or blocks (antagonizes) the effects of the natural regulatory molecules on target gene expression.
Co-transfected cells are exposed to a medium to which is added the potential ligand that is being evaluated. If the candidate ligand diffuses into the cell and binds to the receptor and the resulting complex functions as an agonist, it binds to the co-transfected reporter gene and initiates transcription. When that gene is one that expresses, for example, luciferase, luciferase is produced which catalyzes a light-emitting reaction with its substrate luciferin. Thus, after cell lysis and the introduction of luciferin, the amount of light produced relative to the concentration of candidate ligand used in the assay provides a measure of the potency and efficacy of the compound tested. Antagonist activity is evaluated by adding the candidate ligand and a known agonist to the co-transfected cells.
The receptor cDNA was introduced in a mammalian expression vector under the control of the Rous Sarcoma virus LTR. […] A reporter vector was also transfected, containing a firefly luciferase gene under the control of the hormone-responsive promoter. […] The level of luciferase activity was then measured in cell extracts. Light emission is directly proportional to the effectiveness of the hormone-receptor complex in activating gene expression.
A total of three replicates per concentration point were tested for each compound, and the EC50 was calculated for each positive response. Both agonist and antagonist activity for each test compound was determined in parallel.

The test system of another assay is T47D cells. Kind of assay: Alkaline phosphatase activity in T47D cells (induction and its inhibition). Type of assay: cell-based, human. To be noted: ligand alone; three days. An excerpt:
The functional activities of the cyclocymopol analogues in the human breast cell line, T47D, were also investigated. T47D cells have proven to be a particularly useful model to investigate the molecular actions of sex steroids because they contain endogenous functional receptors for, and respond to, progestins, and their respective antagonists. Moreover, these cells contain exceptionally high titers of progesterone receptors and are exquisitely sensitive to the actions of progestins in a manner quite similar to their actions in normal and neoplastic mammary epithelial cells. In T47D cells, progestins induce de novo synthesis of a plasma-associated alkaline phosphatase, which has been reported to be similar, if not identical, to the alkaline phosphatase present in the normal breast and human milk. These tests were conducted according to the following illustrative example. […] For routine induction of alkaline phosphatase, cells were treated for three days with two media changes and harvested as described below. […] Nuclei were sedimented at 2500 rpm, and the supernatant was saved as cytosol. The protein content of the cytosol was assayed by the method of Bradford. Alkaline phosphatase activity was determined by incubating one volume of cell extract with three volumes of 1 mg/ml p-nitrophenol phosphate prepared in DEAM (1M diethanolamine, pH=9, containing 2 mM magnesium chloride) at room temperature for 20 min. At the end of the incubation time, the reaction was stopped with an equal volume of 1N NaOH. Ten standards of p-nitrophenol were prepared in DEAM buffer and absorbance was read at 405 nm. Alkaline phosphatase activity is expressed as pmol p-nitrophenol formed/min/mg protein.

pIC50, pKd: −log10 of the molar value. “Also recorded” adds a separate entry of the source.

The values below come from patent US5808139A (Ligand Pharmaceuticals Incorporated, priority 1994, dated 1998).

One may read the pIC50 as the IC50 on a negative log10 scale, so that one unit is a factor of ten. What is called pKd is −log10 of the Kd, conventionally taken in molar units.

With 4-isocymobarbatol, the Antimutagen activity entry in assay [1] is on record as “highly active antimutagens”.
Turning to `C=C1C=C(C)CC(C)(C)C1Cc1ccc([N+](=O)[O-])cc1` (stereo not shown) [I, 1-Methylidene-6-(4'-nitrophenyl)methyl-3,5,5-trimethylcyclohex-2-ene], the “Efficacy (% maximal response relative to RU-486), T47D cells” value in assay [2] (antagonist activity, relative to RU-486) is given as 75%. Also, the pIC50 in assay [2] (concentration required to reduce the maximal response by 50%, read-out: Potency (IC50), T47D cells) was 6.90. Besides, in assay [3], the pKd is 7.26. For the same compound, the “Inhibition of decidualization weight gain” value in assay [4] (vs oil control) is listed as “approximately 81%”. Moreover, the “Net Uterine Weight Gain” value in assay [4] (intraluminal, autopsy Day 7, oil alone control 334.7 +/- 41.0) turned out to be 63.9 ± 20.9 mg. In assay [5], the “Efficacy (% maximal response relative to RU-486), CV-1 cells” value turned out to be 95% and the pIC50 was 6.15.
In the case of `C=C1CC[C@@H](Br)C(C)(C)[C@H]1Cc1cc(OC)c(Br)cc1OC(C)=O` [SO-51], the “Progesterone receptor agonist/antagonist activity” value in assay [6] is recorded as “progesterone receptor agonist activity”. Further, the “Agonist activity, alkaline phosphatase induction” value in the assay with T47D cells was “functional agonists; also recorded: increased the activity of intracellular alkaline phosphatase in a concentration-dependent manner”.
Take `C=C1CC[C@@H](Br)C(C)(C)[C@H]1Cc1cc(OC)c(Br)cc1O` [SO-54, (3S)-cyclocymopol monomethyl ether]: the pKd in assay [3] was 6.49. The “Progesterone receptor agonist/antagonist activity” value in assay [6] is reported as “progesterone receptor agonist activity”. The “Agonist activity, alkaline phosphatase induction” value in the assay on T47D cells is given as “functional agonists; also recorded: increased the activity of intracellular alkaline phosphatase in a concentration-dependent manner”. For the same compound, in assay [5], the “Efficacy (% maximal response relative to RU-486), CV-1 cells” value is below 20% and the pIC50 is below 5.00.
Take `CC1(C)[C@@H](Br)CC[C@@]2(C)Oc3cc(Br)c(O)cc3C[C@@H]12` [cymobarbatol]: the Antimutagen activity result in assay [1] was “highly active antimutagens”.
